According to patent publication US20230090094A1, “HEMP EXTRACT FOR TREATMENT OF PAIN, CANCER AND EPILEPSY IN ANIMALS” (ElleVet Sciences, priority 2019, published 2023):
“And” between values parts separate entries of the source, which are not always exact repeats. Equal values may be shown once. Marks after values point to notes of the source that are not given here.

Tests used:
[1] = Feline serum cannabidiol quantification and pharmacokinetics (LC-MS/MS); type: in vivo, cats; conditions: for Cannabidiol in serum: individual cats, replicates A/B, ppb = ng/mL, LOD 1.9, LOQ 6.2
Protocol: On the first day of dosing, blood was collected for a PK analysis from 6 of the 8 cats. The most cooperative cats were selected for the PK analysis. […] Samples were placed into a red top clotting tube with no serum separator. […] The harvested serum was placed in cyrovials stored at −70° C. Each tube was labeled with the cat id, date of collection and collection time point. Samples were shipped overnight on dry ice to the Proteomics & Metabolomics Facility at Colorado State University.
Aliquots of feline serum were delivered to the facility on dry ice and stored at −80° C. upon receipt. […] of cold (−20C.) 100% Acetonitrile (spiked with 60 ng/mL of d3-CBD) was added to each sample and vortexed at room temperature for 5 minutes. 200 μL of water was added and vortexed for an additional 5 minutes. 1 ml of 100% hexane was then added to each sample and vortexed for a final 5 minutes. […] The upper hexane layer was transferred to new-labeled glass vials (˜900 uL per sample), carefully avoiding the middle and lower layers.
An 8 point standard curve of CBD was generated in matrix background using a blank serum. Concentrations ranged from 0 ng/mL 1000 ng/mL (3.2X dilution series). 50 uL of each spiked serum sample was extracted as above.
LC-MS/MS was performed on a Waters Acquity M-Class UPLC coupled to a Waters Xevo TQ-S triple quadrupole mass spectrometer. […] Flow rate was 3.0 μL/min and injection volume was 2.0 μL. Samples were held at 6° C. in the autosampler, and the column was operated at 70° C. The MS was operated in selected reaction monitoring (SRM) mode, where a parent ion is selected by the first quadrupole, fragmented in the collision cell, then a fragment ion selected for by the third quadrupole. Product ions, collision energies, and cone voltages were optimized for each analyte by direct injection of individual synthetic standards. Inter-channel delay was set to 3 ms. The MS was operated in positive ionization mode with the capillary voltage set to 3.6 kV. […] Desolvation gas flow was […], cone gas flow was 150 L/hr, and collision gas flow was 0.2 mL/min. Nebulizer pressure (nitrogen) was set to 7 Bar. Argon was used as the collision gas.
Each target analyte was visually inspected for retention time and peak area integration. Peak areas were extracted for target compounds detected in biological samples and normalized to the peak area of the appropriate internal standard in each sample using in-house R Script (TQS-tools). CBD concentrations were calculated in nanograms per milliliter of extract (0.06 mL) and then back calculated to nanograms per mL of serum (0.05 mL of serum).
LOD are calculated based on the standard deviation of the response (Sy) of the 0 point calibration standard (i.e. 0 ng/mL CBD as an estimate on noise) and the slope of the calibration curve (S) at levels approximating the LOD according to the formula: LOD=3*(Sy/S). LOQ=10*(Sy/S).

[2] = Single-dose oral pharmacokinetics of CBD oil in beagles; type: in vivo, dogs; conditions: industrial hemp
Protocol: The dogs were fed two hours after dosing. […] Attitude, behavior, proprioception, and gait were subjectively evaluated at each time point during free running/walking and navigation around standard traffic cones (weaving). […] Blood samples were obtained via jugular venipuncture and transferred to a coagulation tube for 20 minutes. Samples were centrifuged (VWR, Clinical Centrifuge) at 3,600×g for 10 minutes; serum was removed and stored at −80° C. until analysis using liquid chromatography-mass spectrometry (LC-MS) at Colorado State University Core Mass Spectrometry facility.
CBD was extracted from canine serum using a combination of protein precipitation and liquid-liquid extraction using n-hexane, with minor modifications for microflow ultra-high pressure liquid chromatography (UHPLC). Briefly, 0.05 ml of canine serum was subjected to protein precipitation in the presence of ice-cold acetonitrile (80% final concentration), spiked with deuterated CBD as the internal standard (0.06 mg/ml, CDB-d3 Cerilliant, Round Rock, Tex., USA). 0.2 ml of water was added to each sample prior to the addition of 1.0 ml of hexane to enhance liquid-liquid phase separation. Hexane extract was removed and concentrated to dryness under laboratory nitrogen. Prior to LC-MS analysis, samples were resuspended in 0.06 mL of 100% acetonitrile. A standard curve using the CBD analytical standard was prepared in canine serum non-exposed to CBD and extracted as above.
From the UHPLC-QQQ-MS data, peak areas were extracted for CBD detected in biological samples and normalized to the peak area of the internal standard CBD-d3, in each sample using Skyline as well as an in-house R Script (www.r-project.org). […] Pharmacokinetic variables were estimated by means of non-compartmental analysis, utilizing a pharmacokinetic software package (PK Solution, version 2.0, Montrose, Colo., USA).

## C=C(C)[C@@H]1CCC(C)=C[C@H]1c1c(O)cc(CCCCC)cc1O [cannabidiol]
[1]; 60 min after CBD oil 2 mg/kg oral
  Cannabidiol in serum: 24.44 ppb and 26.32 ppb and 44.14 ppb and 45.40 ppb and 28.10 ppb and 31.02 ppb and 378.59 ppb and 535.08 ppb and 32.85 ppb and 34.26 ppb
[1]; 4 hr after CBD oil 2 mg/kg oral
  Cannabidiol in serum: 1.69** ppb and 1.82** ppb and 1.53** ppb and 51.48 ppb and 68.31 ppb
[1]; 8 hr after CBD oil 2 mg/kg oral
  Cannabidiol in serum: 65.42 ppb and 79.30 ppb and 1.82** ppb and 2.22* ppb and 44.23 ppb and 46.05 ppb and 365.18 ppb and 376.28 ppb and 71.64 ppb and 79.59 ppb
[1]; 24 hr after CBD oil 2 mg/kg oral
  Cannabidiol in serum: 42.76 ppb and 44.88 ppb and 141.92 ppb and 147.74 ppb and 10.28 ppb and 10.31 ppb and 13.95 ppb and 17.17 ppb and 0.18** ppb and 0.36** ppb and 33.12 ppb and 35.88 ppb
[1]; serum, po, 2 mg/kg
  AUC(0-t): 154 ng·h/mL
[2]; dosing at 2 mg/kg
  Average retention time: 6 h
[2]; dosing at 2 mg/kg, average 20 mg total dose
  Peak concentration: approximately 100 ug/kg
[2]; oral dosing at 2 mg/kg
  Total absorption: less than 20%
